In patent publication US9840478B2 (MERCK SHARP & DOHME CORP., priority 2013, dated 2017):

How the values were obtained:
wildtype HIV-1 protease = biological target: T1, wildtype HIV-1 protease (Human immunodeficiency virus type 1 group M subtype B, UniProt P04585); test: Assay for inhibition of microbial expressed HIV protease (Pepcleav); assay type: biochemical; conditions: wildtype HIV-1 protease expressed in E. coli; peptide substrate; mean of at least two independent experiments
T1 construct: preincubated with the HIV-1 protease (wild type) enzyme in assay buffer; made in house; host or cells: Escherichia coli
Procedure: Assay for Inhibition of Microbial Expressed HIV Protease (“Pepcleav”)
Studies of the inhibition of the wildtype HIV-1 protease (which was expressed in Escherichia coli) were carried out with a peptide substrate [Val-Ser-Gln-Asn-(βnaphtyl)Ala-Pro-Ile-Val]. The inhibitor is first preincubated with the HIV-1 protease (wild type) enzyme in assay buffer (50 mM sodium acetate, pH 5.5, 100 mM NaCl, and 0.1% BSA) for 30 minutes at room temperature. Substrate is added to 400 micromolar in a total volume of 20 microliters containing 20 picomolar HIV-1 protease (final) and the reaction is incubated for 1 hour at 30° C. The reaction is quenched with the addition of formic acid and indinavir to 0.012% and 150 nM final concentrations, respectively. The product formation is determined after separation of product and substrate on a Zorbax Eclipse XDB-C18 column connected to an API 4000 mass spectrometer (Applied Biosystems) with multiple reaction monitoring (transitions were 644.5/428.9 and 615.4/422.2 (M1/M3) for product and indinavir respectively). The extent of inhibition of the reaction is determined from the peak area of the products. Analysis of the products, independently synthesized, provided quantitation standards and confirmation of the product composition.

HIV-1 (H9IIIB strain) = test: Cell-based HIV infection assay using a reporter (Cell-Based), MT4-GFP cells; conditions: Human immunodeficiency virus 1, MT4-GFP cells infected with HIV-1 H9IIIB; 50% normal human serum; mean of at least two independent experiments; read-out: Cell-based IP
Summary of the method: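 IC50 from 4-parameter dose-response of % viral growth inhibition, using the 48 h/24 h infected-cell ratio scaled between DMSO and a protease/integrase/NNRTI triple-drug control. Assay used MT4 cells with HIV-LTR-GFP reporter, pre-infected 24 h with HIV-1 H9IIIB, in 50% normal human serum.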

| Compound | IC50 (wildtype HIV-1 protease) [nM] | IC50 (HIV-1 (H9IIIB strain)) [nM] |
| --- | --- | --- |
| CS(=O)(=O)NC1CCN(S(=O)(=O)N2CCNC[C@@H]2CCc2c(F)cncc2NC(=O)C[C@@H](c2ccc(F)cc2)c2cc(F)cc(F)c2)CC1 [Example 334, (3S)-3-(3,5-difluorophenyl)-N-(5-fluoro-4-{2-[(2S)-1-({4-[(methylsulfonyl)amino]piperidin-1-yl}sulfonyl)piperazin-2-yl]ethyl}pyridin-3-yl)-3-(4-fluorophenyl)propanamide] | 10 | 450 |
| CC(=O)NC1CCN(S(=O)(=O)N2CCNC[C@@H]2CCc2c(F)cncc2NC(=O)C[C@@H](c2ccc(F)cc2)c2cc(F)cc(F)c2)CC1 [Example 335, (3S)-N-(4-{2-[(2S)-1-{[4-(acetylamino)piperidin-1-yl]sulfonyl}piperazin-2-yl]ethyl}-5-fluroopyridin-3-yl)-3-(3,5-difluorophenyl)-3-(4-fluorophenyl)propanamide] | 24 | 650 |
| CS(=O)(=O)C1CCN(S(=O)(=O)N2CCNC[C@@H]2CCc2c(F)cncc2NC(=O)C[C@@H](c2ccc(F)cc2)c2cc(F)cc(F)c2)CC1 [Example 336, (3S)-3-(3,5-difluorophenyl)-N-(5-fluoro-4-{2-[(2S)-1-{[4-(methylsulfonyl)piperidin-1-yl]sulfonyl}piperazin-2-yl]ethyl}pyridin-3-yl)-3-(4-fluorophenyl)propanamide] | 13 | 240 |
| O=C(C[C@@H](c1ccc(F)cc1)c1cc(F)cc(F)c1)Nc1cncc(F)c1CC[C@H]1CNCCN1S(=O)(=O)N1CC[C@@H](NC(=O)C(F)(F)F)C1 [Example 338, (3S)-3-(3,5-difluorophenyl)-3-(4-fluorophenyl)-N-(5-fluoro-4-{2-[(2S)-1-({(3R)-3-[(trifluoroacetyl)amino]pyrrolidin-1-yl}sulfonyl)piperazin-2-yl]ethyl}pyridin-3-yl)propanamide] | 130 | 660 |
